What was measured:
[1] = system: Na—K—Cl cotransport; experiment: Na—K—Cl cotransport measured by 86Rb uptake in Jurkat cells; type: cell-based; conditions: 1 μm isoproterenol, p<0.001
Protocol: Jurkat cells were centrifuged for 15 min at 300×g and resuspended in Dulbecco's modified Eagle's medium (DMEM; ionic composition: 1.8 mM CaCl2, 5.4 mM KCl, 0.8 mM MgSO4, 110 mM NaCl, 0.9 mM NaH2PO4, 0.25 µM Fe(NO3)3; GIBCO, Grand Island, N.Y.) with 10 mM N-2 hydroxyethylpiperazine-N′-2 ethanesulfonic acid (HEPES), pH 7.4 at a final concentration of 5-10×10^6 cells/ml. […] Assays were stopped by aliquoting 100 μl of the reaction mixture into chilled microcentrifuge tubes prefilled with 100 μl of 3 mM BaCl2 and 0.1 mM of ouabain solution layered over 100 μl of a 3:1 of mazola oil to n-butylphthalate mixture. Cells were rapidly sedimented through the oil interface (1 min at 15,000 g). Centrifuge tube tips containing the tip pellets were clipped in the vials and radioactivity was determined by scintillation spectroscopy (Beckman LS 6000).

[2] = system: cAMP-dependent protein kinase (PKA); experiment: cAMP-dependent protein kinase (PKA) activity in digitonin-permeabilized Jurkat cells; type: cell-based; conditions: 5× rat C18 purified Reptimed or 1 μm isoproterenol, basal activity 9 +/−1
Protocol: Cyclic AMP-dependent protein kinase (PKA) activity was assayed in digitonin-permeabilized cells. Jurkat cells were centrifuged at 300×g for 15 min and resuspended in Hanks' balanced salt solution without calcium and with 0.5 mM EDTA, 1 mM magnesium sulfate, and 1 mg/100 ml digitonin. Jurkat cells were incubated for 15 min at 4° C. and then washed twice as above in Hanks' solution without digitonin and finally resuspended at a final concentration of 10 to 20×10^6 cells/ml for assay. Cells were either untreated, treated with 5×rat C18 purified […], or with 1 μm isoproterenol, or with both 5[…] and 1 μm isoproterenol. PKA activity was assessed by the phosphorylation of the synthetic PKA substrate (Kemptide-Sigma Chemical Corporation, St. Louis, Mo.). Phosphorylated substrate was separated by adherence to phosphocellulose. After six washes in phosphoric acid, radioactivity on the phosphocellulose strips was assessed by scintillation spectroscopy.

## CC(C)NCC(O)c1ccc(O)c(O)c1 (centres unmarked) [isoproterenol]
[1]
  Na—K—Cl cotransport (86Rb uptake): 38 +/−8 % of control
[2]
  PKA activity: significant increase
